Entries after “also recorded” stand apart in the source; their conditions may differ.
How the values were obtained:
wild type flies = experiment: Viability of drug treated wild-type flies; format: in vivo, Drosophila
Text: FIG. 4B. Decreased viability of wild type flies by AD58 was mitigated by co-administration of Sorafenib or AZD6244.
FIG. 15. Percent viability of control and drug treated wild-type flies (WT). The proportion of WT pupae and adults that survived from the total number of embryos (indicated in brackets below) are represented as column graphs. (Pupae left, Adults right)

ptc>dRet^MEN2B flies = experiment: Drosophila ptc>dRetMEN2B viability assay; format: in vivo; settings: for rescue of ptc>dRetMEN2B viability (pupae, adults), in words: oral administration, drug mixed into food
Text: FIG. 1A. Suppression of Ret^MEN2B-induced developmental block and whole animal toxicity were scored based on number of embryos (n) that survived as pupae (x) and adults (y). Drugs were mixed into food and fed to flies starting at larval stages.
FIG. 1B. Percent viability of control or drug treated flies determined for pupae (x/n) and adults (y/n).
Described herein is a Drosophila MEN2B model in which an intracellular mutation in the Drosophila Ret ortholog (dRet) was targeted to the eye (Read, R. D. et al., Genetics, 2005. 171(3): p. 1057-81). […] The screen is conducted in developing drosophila embryos. Under normal circumstances, drosophila embryos pass through four developmental steps: embryo→larvae→pupae→adult. […] We calibrated the ptc>dRetMEN2B assay to permit 50% survival to pupariation and 0% survival to adulthood. Mutated forms of RET are believed to be causative in human thyroid cancers including multiple endocrine neoplasia types 2A and 2B (MEN2A and MEN2B). The screen identifies small molecules that (a) suppress the toxicity induced by oncogenic RET and (b) allow flies to develop to functional adults. […] 64(19): p. 7099-109; Sun, L. et al., J Med Chem, 2003. 46(7): p.

S6K = S6K (Homo sapiens, UniProt P23443); experiment: In vitro kinase assay, S6K; format: biochemical; settings: in vitro kinase profile, 1 μM
Chain of S6K (P23443 whole entry, canonical isoform): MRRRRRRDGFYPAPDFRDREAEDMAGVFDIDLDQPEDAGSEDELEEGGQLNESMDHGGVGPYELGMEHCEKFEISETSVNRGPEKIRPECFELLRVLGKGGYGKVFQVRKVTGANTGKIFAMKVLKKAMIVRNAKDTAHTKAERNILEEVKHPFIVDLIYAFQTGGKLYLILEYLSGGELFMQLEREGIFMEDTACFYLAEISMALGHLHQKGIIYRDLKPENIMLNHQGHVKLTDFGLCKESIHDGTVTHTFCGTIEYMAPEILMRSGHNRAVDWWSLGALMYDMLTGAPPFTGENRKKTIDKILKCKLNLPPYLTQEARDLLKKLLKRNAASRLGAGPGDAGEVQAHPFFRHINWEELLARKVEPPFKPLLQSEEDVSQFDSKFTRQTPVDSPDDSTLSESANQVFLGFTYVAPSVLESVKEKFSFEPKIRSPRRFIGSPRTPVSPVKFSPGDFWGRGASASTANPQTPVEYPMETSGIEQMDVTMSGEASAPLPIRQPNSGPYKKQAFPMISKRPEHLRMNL
Experimental: (§1) Using in vitro kinase assays we tested AD57, AD36, and AD58 at 1 μM for activity against approximately one-half of the human kinome (FIG. 1E): 165 Ser/Thr kinases, 91 Tyr kinases, and 10 PI kinases were assayed, totaling 266 kinases (244 distinct kinases plus 22 mutant isoforms; see FIG. 6A-6C, FIG. 7A-7F, and FIG. 8 for measured inhibition values).
(§2) At least three major pathways are required for dRet^MEN2B-mediated transformation: Ras, Src, and glucose metabolism/PI3K (FIG. 3A; Ref (Read, R. D. et al., Genetics, 2005. 171(3): p. 1057-81)). We utilized in vitro kinase assays to assess compound activity against relevant kinases from each of these pathways, specifically Ret, B-Raf, Src, Tor, and S6K (FIG. 3B).

B-Raf = B-Raf (Homo sapiens, UniProt P15056); experiment: In vitro kinase assay, B-Raf; format: biochemical; settings: in vitro kinase profile, 1 μM
Chain of B-Raf (P15056 whole entry): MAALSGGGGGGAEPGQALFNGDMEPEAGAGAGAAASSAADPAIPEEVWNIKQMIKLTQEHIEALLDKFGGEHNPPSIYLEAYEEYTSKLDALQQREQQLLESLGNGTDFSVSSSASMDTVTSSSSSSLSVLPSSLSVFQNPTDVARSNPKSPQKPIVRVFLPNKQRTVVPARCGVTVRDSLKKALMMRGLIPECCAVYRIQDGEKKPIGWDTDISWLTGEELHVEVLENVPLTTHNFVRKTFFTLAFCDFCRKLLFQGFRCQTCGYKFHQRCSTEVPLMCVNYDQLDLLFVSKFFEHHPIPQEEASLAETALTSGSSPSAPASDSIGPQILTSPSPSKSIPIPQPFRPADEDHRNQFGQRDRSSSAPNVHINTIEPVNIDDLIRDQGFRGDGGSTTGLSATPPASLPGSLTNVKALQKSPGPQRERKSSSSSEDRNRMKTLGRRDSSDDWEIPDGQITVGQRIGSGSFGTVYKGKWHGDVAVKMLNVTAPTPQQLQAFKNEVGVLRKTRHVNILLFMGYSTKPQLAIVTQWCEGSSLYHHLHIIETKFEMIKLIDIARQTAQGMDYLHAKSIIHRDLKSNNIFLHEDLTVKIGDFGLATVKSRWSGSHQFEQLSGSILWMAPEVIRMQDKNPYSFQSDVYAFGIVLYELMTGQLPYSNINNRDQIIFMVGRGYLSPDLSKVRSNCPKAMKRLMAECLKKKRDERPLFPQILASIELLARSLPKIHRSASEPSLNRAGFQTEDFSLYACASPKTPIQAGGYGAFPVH
Experimental: as §1, §2

[1] = test system: MEN2A (TT) thyroid cancer cells; experiment: Immunoblot analysis of drug-treated TT cells; format: cell-based, human; settings: 1 hour of treatment
Experimental: (§3) FIG. 19. […] MEN2A (TT) and MEN2B (MZ) thyroid cancer cells were treated with the indicated drugs for 3 days at a final concentration of 2 μM. Cell lystates were immunoblotted for protein markers of apoptosis. Vandetanib (vand.) was included for comparison.
(§4) FIG. 20A-20B. […] FIG. 20A. MEN2B (MZ) and FIG. 20B. MEN2A (TT) thyroid cancer cells were treated with the indicated concentrations of drug. Following 1 hour of treatment, cells were harvested and lysates prepared for immunoblotting to detect the indicated proteins. VD=vandetanib; SF=sorafenib.

Src = Src (Homo sapiens, UniProt P12931); experiment: In vitro kinase assay, Src; format: biochemical; settings: in vitro kinase profile, 1 μM
Chain of Src (P12931 whole entry): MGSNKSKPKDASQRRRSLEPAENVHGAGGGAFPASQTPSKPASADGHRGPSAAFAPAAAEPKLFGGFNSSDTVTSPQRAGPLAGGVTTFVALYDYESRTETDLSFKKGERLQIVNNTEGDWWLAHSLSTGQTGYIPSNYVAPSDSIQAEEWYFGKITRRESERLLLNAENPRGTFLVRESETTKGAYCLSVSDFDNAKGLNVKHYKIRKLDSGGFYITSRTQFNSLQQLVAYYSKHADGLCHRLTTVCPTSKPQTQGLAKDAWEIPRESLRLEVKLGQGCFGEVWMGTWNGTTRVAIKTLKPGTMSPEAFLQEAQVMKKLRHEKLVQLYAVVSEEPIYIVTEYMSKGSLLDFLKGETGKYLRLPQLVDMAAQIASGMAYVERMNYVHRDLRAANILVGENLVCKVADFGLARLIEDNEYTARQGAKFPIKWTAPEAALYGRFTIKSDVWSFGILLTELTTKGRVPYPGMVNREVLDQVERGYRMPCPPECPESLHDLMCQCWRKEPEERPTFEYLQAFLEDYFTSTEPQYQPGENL
Experimental: as §1, §2

[2] = test system: ptc>dRet^MEN2B wing cells; experiment: Wing-based assay for transformation and cell migration (ptc>dRetMEN2B); format: in vivo, Drosophila
Text: FIG. 4E. Quantification of ptc>dRet^MEN2B phenotypes. Invasion was established by scoring for single/groups of GFP-labeled cells that relocated away from the ptc boundary (FIG. 4C, asterisks). Basal migration was scored as indentation of the apical surface (see FIG. 2B, arrows). Proliferation was scored as significant widening of the ptc boundary. The number of wings analyzed under each condition is indicated in brackets.
We previously developed a wing-based assay for transformation and cell migration that we utilized to explore Ras- and Src-based tumorigenesis (Vidal, M., D. E. Larson, and R. L. Cagan, Dev Cell, 2006. 10(1): p. 33-44). In this assay, the ptc-GAL4 driver directed oncogene expression in a stripe along the anterior-posterior axis; oncogene-based transformation led to over-proliferation, epithelial-to-mesenchymal transition (EMT), and cell migration away from the ptc domain.

[3] = test system: MEN2B (MZ) thyroid cancer cells; experiment: Immunoblot analysis of drug-treated MZ cells; format: cell-based, human; settings: 1 hour of treatment
Experimental: as §3, §4

mTor = mTor (Homo sapiens, UniProt P42345); experiment: In vitro kinase assay, mTor; format: biochemical; settings: in vitro kinase profile, 1 μM
Experimental: as §1, §2

[4] = test system: 765>dRet^MEN2B wings (Ras/Erk pathway activity); experiment: Adult wing vein pattern assay (765>dRetMEN2B); format: in vivo, Drosophila; settings: drug fed flies
Text: The adult Drosophila wing consists of a stereotypical pattern of […] and two cross-veins; increased Ras/Erk pathway activity leads to ectopic veins (e.g., Refs. (Sawamoto, K. et al., Dev Biol, 1996. 178(1): p. 13-22; Guichard, A. et al., Development, 1999. 126(12): p. 2663-76)). Expression of oncogenic dRet throughout the developing wing (765>dRet^MEN2B) led to disruption of the overall adult wing pattern including ectopic wing veins (FIG. 3D). Reducing gene dosage of the erk ortholog rolled (765>dRet^MEN2B erk−/+) suppressed these phenotypes (FIG. 3D), confirming that wing vein formation is dependent on Ras/Erk activity.

Ret kinase domain = biological target: T1, Ret kinase domain (Homo sapiens, UniProt P07949); experiment: In vitro kinase assay, Ret; format: biochemical; settings: in vitro kinase profile, 1 μM
T1 construct: determined against a purified form of the Ret kinase domain
T1 sequence (P07949 724-1016 limits assumed): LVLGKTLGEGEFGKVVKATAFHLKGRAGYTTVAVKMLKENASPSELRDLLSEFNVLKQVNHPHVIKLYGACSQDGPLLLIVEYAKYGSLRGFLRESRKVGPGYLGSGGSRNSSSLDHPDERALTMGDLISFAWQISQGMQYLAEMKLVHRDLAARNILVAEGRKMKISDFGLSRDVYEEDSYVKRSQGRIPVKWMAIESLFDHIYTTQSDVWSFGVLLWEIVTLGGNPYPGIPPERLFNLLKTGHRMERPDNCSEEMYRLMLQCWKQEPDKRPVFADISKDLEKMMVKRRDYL
Experimental: FIG. 1D. […] Half maximal inhibitory concentrations (IC50) were determined against a purified form of the Ret kinase domain.
as §1, §2

[5] = test system: MZ-CRC-1 (MEN2B) cancer cell line; experiment: MZ-CRC-1 cell viability (MTT assay); format: cell-based, human
[6] = test system: TT cell tumors in athymic nu/nu mice; experiment: MEN2 (TT) mouse xenograft model; format: in vivo; settings: nude mice transplanted with TT cells; oral gavage; median per group
Experimental: FIG. 11. […] TT thyroid cancer cells were implanted into athymic nu/nu mice subcutaneously into the right flank under the conditions listed. Upon establishment of tumors, drugs were administered by oral gavage (5 days ON/2 days OFF schedule). Tumors were measured using digital calipers. […] VD=vandetanib.
FIG. 18A-18D. […] FIG. 18A. MEN2B (MZ) thyroid cancer cells were treated with the indicated concentrations of each inhibitor (7 days) and cell viability was quantitated by MTT assay. FIG. 18B. MEN2A (TT) thyroid cancer cells were treated with the indicated concentrations of each inhibitor (7 days) and cell viability was quantitated by MTT assay. FIG. 18C. […] Change in tumor volume was calculated per mouse. Values shown are the median percent change per group. 20 and 10 animals for vehicle and drug treated mice, respectively, were analyzed. FIG. 18D. Body weight measurements of AD80, Vandetanib (VD) and vehicle treated nude mice transplanted with TT cells. Values shown are the median of 20 and 10 animals for vehicle and drug treated mice, respectively.
TT-based tumors were grown for 46 days in athymic nu/nu male mice prior to drug administration.

SMILES | rescue of ptc>dRetMEN2B viability (pupae, adults), in words (ptc>dRet^MEN2B flies) | S6K inhibition, in words (S6K) | B-Raf (Raf) inhibition, in words (B-Raf) | Src inhibition, in words (Src) | suppression of dRetMEN2B-induced proliferation, EMT, invasion/basal migration ([2]; oral administration) | mTor inhibition, in words (mTor) | further results
CC(C)n1nc(-c2ccc(NC(=O)Nc3ccccc3)cc2)c2c(N)ncnc21 [AD58] | significant toxicity without detectable efficacy | much weaker inhibitor | much weaker inhibitor | strongly inhibited | failed to prevent invasion/basal migration and not and did not suppress migration | more potent; also recorded: stronger inhibitor | whole animal toxicity (wild type flies; fed to ptc>dRetMEN2B and wild type flies): significant whole animal toxicity; effect of reducing dTor on drug efficacy/toxicity (ptc>dRet^MEN2B flies; ptc>dRetMEN2B dTor-/+): enhanced the toxicity; effect of reducing erk gene dosage on drug efficacy in viability assay (ptc>dRet^MEN2B flies; ptc>dRetMEN2B, erk-/+): considerably enhanced the efficacy; phospho-Ret and downstream biomarkers [1]: potent inhibitors; invasion and migration of dRetMEN2B-transformed cells ([2]; co-treatment AD58 plus Sorafenib): significant suppression of invasion and migration; also recorded: blocked; basal phospho-Src in wing epithelium ([2]; oral administration): prevented basal phospho-Src accumulation; phospho-Ret and downstream biomarkers [3]: potent inhibitors; ectopic wing vein / wing pattern phenotype [4]: slightly but consistently enhanced
CC(C)n1nc(-c2ccc(NC(=O)Nc3ccc(Cl)c(C(F)(F)F)c3)cc2)c2c(N)ncnc21 [AD81] | improved rescue relative to AD57 | inhibited | inhibited | inhibited | significantly improved suppression | not and greatly reduced mTor activity and lack significant inhibitory activity | Ret inhibition, in words (Ret kinase domain): inhibited
Cn1cnc2c(F)c(Nc3ccc(Br)cc3Cl)c(C(=O)NOCCO)cc21 [AZD6244, reference compound] | did not rescue viability | – | – | – | – | – | AD58-mediated toxicity in wild type flies on co-feeding with the named drug (wild type flies; in vivo): almost completely suppressed
Nc1ncnc2c1c(-c1cnc3[nH]ccc3c1)nn2C1CCCC1 [PP121, reference compound] | – | – | – | – | limited ability to significantly rescue the transformation phenotype and not | – | inhibition of MZ-CRC-1 cell viability / proliferation, in words [5]: levels approaching AD57
CNC(=O)c1cc(Oc2ccc(NC(=O)Nc3ccc(Cl)c(C(F)(F)F)c3)cc2)ccn1 [Sorafenib, reference compound] | stronger; also recorded: rescued some animals to adulthood but did not significantly increase the proportion that developed to pupariation | – | – | – | measurable rescue that was nonetheless less than AD57; also recorded: did not suppress migration | – | AD58-mediated toxicity in wild type flies on co-feeding with the named drug (wild type flies; co-feeding with AD58): almost completely suppressed; notum, scutellum and cuticle defects of ptc>dRetMEN2B adults (ptc>dRet^MEN2B flies; drug fed flies): weakly suppressed; also recorded: some cuticle defects
COc1cc2c(Nc3ccc(Br)cc3F)ncnc2cc1OCC1CCN(C)CC1 [Vandetanib, reference compound] | – | – | – | – | – | – | reduction of tumor progression relative to vehicle [6]: 1.9 fold
